This is an account of results in patent publication US11066629B2, “Lipid metabolism-promoting composition including isoxanthohumol” (SUNTORY HOLDINGS LIMITED, priority 2016, dated 2021).

Structures are written as SMILES.

For data set [1] the following is noted: heating; isoxanthohumol at 100° C.; cited from earlier work.
In data set [2] the test system is type II diabetes mouse model. The settings on record: feed containing xanthohumol at 1%; cited from earlier work.
Data set [3] is described as follows: Solubility in water under ice cooling conditions (Experiment A). The data set is classed as physicochemical. The note with it: distilled water, ppm on w/v basis. From the text: The solubility of each of the standard samples of xanthohumol and isoxanthohumol in water (Experiment A) and various solvents (Experiment B) under ice cooling conditions was studied to evaluate the suitability for beverage applications. Xanthohumol and isoxanthohumol were the standard samples obtained in Preparation Example 1 (purity of 95% or higher).
A sample containing distilled water and xanthohumol or isoxanthohumol having a weight corresponding to 0.2% (w/v) of the distilled water was prepared, and each standard sample was allowed to dissolve in distilled water as much as possible by stirring in a vortex mixer for 10 seconds or longer and shaking for about 60 minutes under ice cooling conditions. Further, centrifugation was performed (12,000 rpm, 4° C., for 5 minutes), and the supernatant was collected. This procedure was repeated three times. The finally obtained supernatant was used as a xanthohumol saturated aqueous solution or an isoxanthohumol saturated aqueous solution. The saturated aqueous solution was 100-fold diluted with a 25% aqueous ethanol solution to obtain a sample for analysis. The sample was subjected to quantitative analysis using an LC-MS/MS system (TSQ Quantiva, Thermo Fisher Scientific Inc.) to evaluate the solubility in water. […] Note that ppm is ppm on w/v basis unless otherwise specified. […]

In data set [4] the test system is high-fat diet mouse model. The note with it: repeated dose 30 mg/kg/day; cited from earlier work.

`COc1cc(O)c(CC=C(C)C)c(O)c1C(=O)/C=C/c1ccc(O)cc1` [xanthohumol]: the thermal stability entry in data set [1] is given as “thermally unstable”. Also, in data set [2], the body weight gain result is “tendency of suppression of body weight gain” and the “weight of fat around kidney or the like” value is “decrease”. In addition, in data set [3], the “Solubility in water (ice cooling conditions)” value was “Less than 0.5 ppm”. The body weight increase result in data set [4] is recorded as “suppression of body weight increase”.
